Assay results published in patent publication US20210275418A1, “Personal Care Compositions” (Colgate-Palmolive Company, priority 2020, published 2021).

Key:
Type in all cases: biochemical
tyrosinase = assay: Tyrosinase inhibition, tyrosinase inhibitor screening kit (Sigma Aldrich MAK 257 Kit)
Experimental: A study of tyrosinase inhibition is conducted (e.g., Sigma Aldrich MAK 257 Kit) to investigate the efficacy of an exemplary composition of the present invention (0.312% lactic acid; 0.156% mandelic acid; and 0.078% pyruvic acid) and individual short chain fatty acids at the same concentrations.
A study of tyrosinase inhibition is conducted (e.g., Sigma Aldrich MAK 257 Kit) to investigate the efficacy of an exemplary composition of the present invention (0.312% mandelic acid and 0.156% pyruvic acid) and individual short chain fatty acids at the same concentrations.
(§1) The anti-tyrosinase activity of an exemplary composition of the present invention was compared to the anti-tyrosinase activity of individual short chain fatty acids. Assays were performed using a tyrosinase inhibitor screening kit from Sigma Aldrich (MAK 257 Kit); and following the manufacturer's protocol. The results of these experiments are described in Table 1 (below).
as §1, with “4” for “1”
Peels were diluted 1000× in buffer to prepare 0.1% working stock. The working stock was serially diluted 2× to test the peels at five doses (0.1 wt. %, 0.05 wt. %, 0.025 wt. %, 0.0125 wt. % and 0.00625 wt. %). The pH of all test samples and dilutions was measured before and after tyrosinase assay to exclude any effect of acid on the enzyme activity. The assay was performed using a commercial kit following manufacturer's protocol (e.g., MAK 257 Kit from Sigma Aldrich). LMP peels containing various concentrations of pyruvic acid at pH 2.5 (“R1 Peels”); LMP peels which were identically formulated to the R1 Peels, but with pH buffered to 3.6 (“R2 Peels”); and LMP′ peels which were identically formulated to the R2 Peels, other than the replacement of pyruvic acid with sodium pyruvate (“R3 Peels”), were all evaluated.

collagenase = assay: Collagenase inhibition, collagenase inhibitor screening kit (Sigma Aldrich MAK 293 Kit)
Experimental: (§2) A study of collagenase inhibition is conducted (e.g., Sigma Aldrich MAK 293 Kit) to investigate the was conducted to investigate the efficacy of an exemplary composition of the present invention (1.25% lactic acid; 0.625% mandelic acid; and 0.312% pyruvic acid) and individual short chain fatty acids, at the same concentrations.
as §2, with “mandelic acid and” for “lactic acid;”, “0.625%” for “0.625% mandelic acid; and 0.312%”
as §1, with “anti-collagenase” for “anti-tyrosinase”, “collagenase” for “tyrosinase”, “293” for “257”, “2” for “1”
as §1, with “anti-collagenase” for “anti-tyrosinase”, “collagenase” for “tyrosinase”, “293” for “257”, “5” for “1”

elastase = molecular target: T1, elastase (Homo sapiens, UniProt P08246); assay: Elastase inhibition, elastase inhibitor screening kit (Sigma Aldrich MAK 213 Kit); details: Table 3, Example 7
T1 construct: purchased Sigma Aldrich MAK 213 Kit
T1 sequence (P08246 30-267): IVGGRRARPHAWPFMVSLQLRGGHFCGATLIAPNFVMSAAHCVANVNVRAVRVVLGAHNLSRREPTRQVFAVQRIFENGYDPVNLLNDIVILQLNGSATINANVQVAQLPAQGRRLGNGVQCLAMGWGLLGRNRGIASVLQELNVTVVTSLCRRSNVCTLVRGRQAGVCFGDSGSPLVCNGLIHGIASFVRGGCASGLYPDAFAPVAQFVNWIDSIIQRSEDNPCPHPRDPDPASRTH
Experimental: as §1, with “anti-elastase” for “anti-tyrosinase”, “an elastase” for “a tyrosinase”, “213” for “257”, “3” for “1”

SMILES: O=C(O)C(O)c1ccccc1 (centres unmarked) [Mandelic Acid (M), mandelic acid]
- % Tyrosinase Inhibition (tyrosinase; Table 4, Example 8, 0.156 wt. %): 0.06%
- % Tyrosinase Inhibition (tyrosinase; Table A, Example 1, 0.156 wt. %): 0.06%
- % Tyrosinase Inhibition (tyrosinase; Table C, Example 3, 0.312 wt. %): 1.17%
- % Collagenase Inhibition (collagenase; Table 5, Example 9, 0.625 wt. %): 8.57%
- % Collagenase Inhibition (collagenase; Table B, Example 2, 0.625 wt. %): 8.57%
- % Collagenase Inhibition (collagenase; Table D, Example 4, 1.25 wt. %): 11.26%

SMILES: CC(=O)C(=O)O [Pyruvic Acid (P), pyruvic acid]
- % Tyrosinase Inhibition (tyrosinase; Table 1, Example 5, 0.078 wt. %): 29.29%
- % Tyrosinase Inhibition (tyrosinase; Table A, Example 1, 0.078 wt. %): 0.37%
- % Tyrosinase Inhibition (tyrosinase; Table C, Example 3, 0.156 wt. %): 26.62%
- % Collagenase Inhibition (collagenase; Table 2, Example 6, 0.312 wt. %): 8.79%
- % Collagenase Inhibition (collagenase; Table B, Example 2, 0.312 wt. %): 6.70%
- % Collagenase Inhibition (collagenase; Table D, Example 4, 0.625 wt. %): 9.58%
- % Elastase Inhibition (elastase; 0.156 wt. %): 20.21%

SMILES: CC(O)C(=O)O (centres unmarked) [Lactic Acid (L), lactic acid]
- % Tyrosinase Inhibition (tyrosinase; Table 1, Example 5, 0.312 wt. %): 52.72%
- % Tyrosinase Inhibition (tyrosinase; Table 4, Example 8, 0.312 wt. %): 1.23%
- % Tyrosinase Inhibition (tyrosinase; Table A, Example 1, 0.312 wt. %): 2.23%
- % Collagenase Inhibition (collagenase; Table 2, Example 6, 1.25 wt. %): 40.32%
- % Collagenase Inhibition (collagenase; Table 5, Example 9, 1.25 wt. %): 12.71%
- % Collagenase Inhibition (collagenase; Table B, Example 2, 1.25 wt. %): 12.71%
- % Elastase Inhibition (elastase; 0.625 wt. %): 44.89%
